Values joined by “and” are separate entries in the source; they are usually repeats but may differ in a detail not shown here. Equal entries are not always repeated. Where two headings read alike, the source gives them in different places. Marks after values point to notes of the source that are not given here.
How the values were obtained:
[1] = biological target: T1, M. tuberculosis glutamine synthetase (Mycobacterium tuberculosis, UniProt P9WN39); type: cell-based, M. tuberculosis Erdman
[2] = test system: sheep brain glutamine synthetase; type: biochemical
[3] = biological target: T2, E. coli glutamine synthetase (Escherichia coli, UniProt P0A9C5); type: biochemical, E. coli W
T2 sequence (P0A9C5 2-469 limits assumed): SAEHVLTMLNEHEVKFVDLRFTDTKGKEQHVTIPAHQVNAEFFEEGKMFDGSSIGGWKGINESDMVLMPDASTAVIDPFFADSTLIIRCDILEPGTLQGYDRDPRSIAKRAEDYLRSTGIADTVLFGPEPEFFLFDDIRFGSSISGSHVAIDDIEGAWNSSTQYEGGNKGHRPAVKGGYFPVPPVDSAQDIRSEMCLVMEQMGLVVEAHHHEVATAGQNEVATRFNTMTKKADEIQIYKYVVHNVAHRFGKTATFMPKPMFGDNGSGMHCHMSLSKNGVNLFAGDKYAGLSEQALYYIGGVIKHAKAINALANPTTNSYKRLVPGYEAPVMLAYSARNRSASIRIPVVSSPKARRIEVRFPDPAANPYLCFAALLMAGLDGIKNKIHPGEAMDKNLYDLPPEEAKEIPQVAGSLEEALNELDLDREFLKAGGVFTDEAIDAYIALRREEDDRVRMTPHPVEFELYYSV

[4] = biological target: T1, M. tuberculosis glutamine synthetase; type: biochemical, M. tuberculosis Erdman
M. tuberculosis Erdman [5] = type: cell-based
M. tuberculosis = type: cell-based
[6] = biological target: T1, M. tuberculosis glutamine synthetase; type: cell-based, M. tuberculosis (expressed in M. smegmatis); details: 200 μM
[7] = test system: recombinant M. tuberculosis glutamine synthetase; type: cell-based, M. tuberculosis (expressed in M. smegmatis); details: 200 μM
M. tuberculosis Erdman [8] = type: cell-based; remark: listed apart in the source
M. avium (25291; ATCC) = type: cell-based
[9] = test system: γ-glutamylcysteine synthetase; details: in contrast to glutamine synthetase; cited from earlier work
M. avium = type: cell-based
[10] = test system: M. tuberculosis superoxide dismutase; type: cell-based; details: 20 μM
M. smegmatis = type: cell-based
M. phlei = type: cell-based; details: 3 d
E. coli DH5α = type: cell-based; details: 6 h
[11] = test system: L. pneumophila Philadelphia 1; type: cell-based; details: 24 h
M. bovis = type: cell-based
M. bovis BCG = type: cell-based
M. tuberculosis H37Rv = type: cell-based

T1 sequence (P9WN39 2-478): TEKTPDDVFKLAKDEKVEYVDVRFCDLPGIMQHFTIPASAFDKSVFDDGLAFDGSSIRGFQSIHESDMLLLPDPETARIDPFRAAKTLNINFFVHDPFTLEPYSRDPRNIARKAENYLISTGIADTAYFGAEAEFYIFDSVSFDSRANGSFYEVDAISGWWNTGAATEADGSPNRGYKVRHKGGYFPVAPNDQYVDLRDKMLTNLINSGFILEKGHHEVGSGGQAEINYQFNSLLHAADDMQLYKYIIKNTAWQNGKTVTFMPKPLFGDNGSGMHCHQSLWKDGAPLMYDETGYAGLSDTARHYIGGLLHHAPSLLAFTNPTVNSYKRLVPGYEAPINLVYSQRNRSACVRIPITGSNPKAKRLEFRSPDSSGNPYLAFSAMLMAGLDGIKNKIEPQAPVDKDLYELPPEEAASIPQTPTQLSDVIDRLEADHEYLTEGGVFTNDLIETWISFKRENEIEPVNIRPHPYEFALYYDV

Compound: NC(=O)c1cnccn1 [pyrazinamide]
- effect on intracellular or extracellular glutamine synthetase activity [1]: negligible effect

Compound: CP(=O)(O)CCC(N)C(=O)O (racemic) [D,L-phosphinothricin]
- inactivation at the highest dose of inhibitor [2]: not completely inactivated
- remaining enzyme activity (% of initial activity) [2]: ~25%
- remaining enzyme activity (% of initial activity) ([2]; 2 μM): 60%
- Ki ([2]; read-out: Ki D,L-Ppt): 16.4 µM
- remaining enzyme activity (% of initial activity) ([3]; 2 µM): < 10% and 3–10%
- remaining enzyme activity (% of initial activity) ([3]; 20 μM): ≤ 0.5%
- remaining enzyme activity (% of initial activity) ([3]; 200 μM): ≤ 0.5%
- remaining enzyme activity (% of initial activity) ([4]; 2 µM): < 10% and 3–10%
- remaining enzyme activity (% of initial activity) ([4]; 20 μM): ≤ 0.5%
- remaining enzyme activity (% of initial activity) ([4]; 200 μM): ≤ 0.5%
- cell density lag behind uninhibited cultures (M. tuberculosis Erdman [5]; 20, 200, 2,000 μM): 0.5–1.5 log units

Compound: NNC(=O)c1ccncc1 [isoniazid]
- effect on intracellular or extracellular glutamine synthetase activity [1]: negligible effect

Compound: CO[C@H]1/C=C/O[C@@]2(C)Oc3c(C)c(O)c4c(O)c(c(/C=N/N5CCN(C)CC5)c(O)c4c3C2=O)NC(=O)/C(C)=C\C=C\[C@H](C)[C@H](O)[C@@H](C)[C@@H](O)[C@@H](C)[C@H](OC(C)=O)[C@@H]1C [Rifampin, rifampin]
- effect on intracellular or extracellular glutamine synthetase activity [1]: negligible effect
- influence on the content of either poly-L-glutamate/glutamine or D,L-alanine (M. tuberculosis): little influence
- D,L-Alanine (M. tuberculosis; 0.0125 μg/ml): 23.6 μg/10^10 Cells
- Poly-L-Glutamate/glutamine (M. tuberculosis; 0.0125 μg/ml): 54.2 μg/10^10 Cells
- D,L-Alanine (M. tuberculosis; 0.05 μg/ml): 25.1 μg/10^10 Cells
- Poly-L-Glutamate/glutamine (M. tuberculosis; 0.05 μg/ml): 41.6 μg/10^10 Cells
- D,L-Alanine (M. tuberculosis; 0.2 μg/ml): 20.0^a μg/10^10 Cells
- Poly-L-Glutamate/glutamine (M. tuberculosis; 0.2 μg/ml): 40.0^a μg/10^10 Cells

Compound: NCC[C@H](O)C(=O)N[C@@H]1C[C@H](N)[C@@H](O[C@H]2O[C@H](CN)[C@@H](O)[C@H](O)[C@H]2O)[C@H](O)[C@H]1O[C@H]1O[C@H](CO)[C@@H](O)[C@H](N)[C@H]1O [Amikacin, amikacin]
- influence on the content of either poly-L-glutamate/glutamine or D,L-alanine (M. tuberculosis): little influence
- D,L-Alanine (M. tuberculosis; 0.06 μg/ml): 29.1 μg/10^10 Cells
- Poly-L-Glutamate/glutamine (M. tuberculosis; 0.06 μg/ml): 49.9 μg/10^10 Cells
- D,L-Alanine (M. tuberculosis; 0.25 μg/ml): 26.3 μg/10^10 Cells
- Poly-L-Glutamate/glutamine (M. tuberculosis; 0.25 μg/ml): 43.2 μg/10^10 Cells
- D,L-Alanine (M. tuberculosis; 1 μg/ml): 12.0^a μg/10^10 Cells
- Poly-L-Glutamate/glutamine (M. tuberculosis; 1 μg/ml): 26.0^a μg/10^10 Cells

Compound: CS(=N)(=O)CC[C@H](N)C(=O)O (stereo partly drawn) [L-methionine-S-sulfoximine]
- decrease of extracellular glutamine synthetase activity of the recombinant strain [6]: 89%
- decrease of cell-associated glutamine synthetase activity (sum of endogenous and recombinant enzymes) [7]: 17%
- inactivation at the highest dose of inhibitor [2]: not completely inactivated
- remaining enzyme activity (% of initial activity) ([2]; 2 μM): ~40%
- Ki ([2]; read-out: Ki L-Ms): 110 µM
- remaining enzyme activity (% of initial activity) ([3]; 2 µM): < 10% and 3–10%
- remaining enzyme activity (% of initial activity) ([3]; 20 μM): < 10%
- remaining enzyme activity (% of initial activity) ([3]; 200 μM): ≤ 0.5%
- growth of intracellular bacteria (M. tuberculosis Erdman [8]; 2 μM): slowed
- growth of intracellular bacteria (M. tuberculosis Erdman [8]; 200 μM): strongly inhibited
- effect on the quantity of glutamine synthetase protein exported [1]: no detectable effect
- cell-associated glutamine synthetase activity (plateau) ([1]; 20 μM): ~50 mU
- decrease of cell-associated glutamine synthetase activity from the uninhibited level ([1]; 20 μM): 14%
- extracellular glutamine synthetase activity ([1]; 20 μM): ~4.5 mU
- reduction of extracellular glutamine synthetase activity from the uninhibited level ([1]; 20 μM): 80%
- growth of intracellular bacteria (M. avium (25291; ATCC); 2 μM): uninhibited
- growth of intracellular bacteria (M. avium (25291; ATCC); 200 μM): strongly inhibited
- nature of the inhibition of γ-glutamylcysteine synthetase [9]: reversible
- sensitivity of growth to the inhibitor (M. avium): intermediate
- effect on morphology, doubling time, or viability (THP-1 human monocytes): no effect
- activity or quantity of extracellular superoxide dismutase compared with untreated cultures [10]: no reduction
- growth rate of parent and recombinant M. smegmatis strain (M. smegmatis; 200 μM): unaffected
- sensitivity of growth to the inhibitor (M. smegmatis; 3 d): insensitive
- remaining enzyme activity (% of initial activity) ([4]; 2 µM): < 10% and 3–10%
- remaining enzyme activity (% of initial activity) ([4]; 20 μM): < 10%
- remaining enzyme activity (% of initial activity) ([4]; 200 μM): ≤ 0.5%
- D,L-Alanine (M. tuberculosis; 0.2 μM): 21.2 μg/10^10 Cells
- Poly-L-Glutamate/glutamine (M. tuberculosis; 0.2 μM): 18.2 μg/10^10 Cells
- D,L-Alanine (M. tuberculosis; 2 μM): 17.7 μg/10^10 Cells
- Poly-L-Glutamate/glutamine (M. tuberculosis; 2 μM): 9.8 μg/10^10 Cells
- D,L-Alanine (M. tuberculosis; 20 μM): 17.8 μg/10^10 Cells
- Poly-L-Glutamate/glutamine (M. tuberculosis; 20 μM): 6.1 μg/10^10 Cells
- effect on cell growth (M. tuberculosis Erdman [5]): blocked cell growth almost immediately
- growth (M. tuberculosis Erdman [5]): completely inhibited
- growth lag behind uninhibited cultures with L-glutamine added (M. tuberculosis Erdman [5]): 0.4–1.3 log units
- reversal of growth inhibition by L-glutamine (M. tuberculosis Erdman [5]): almost complete
- growth lag behind untreated control cultures (M. tuberculosis Erdman [5]; 0.2 μM): 0.1–0.2 log units
- growth plateau below that of control cultures (M. tuberculosis Erdman [5]; 2 μM): ~2 log units
- sensitivity of growth to the inhibitor (M. tuberculosis Erdman [5]; 0.2-200 μM): highly sensitive
- sensitivity of growth to the inhibitor (M. phlei): insensitive
- sensitivity of growth to the inhibitor (E. coli DH5α): insensitive
- sensitivity of growth to the inhibitor [11]: insensitive
- sensitivity of growth to the inhibitor (M. bovis): highly sensitive
- sensitivity of growth to the inhibitor (M. bovis BCG): highly sensitive
- sensitivity of growth to the inhibitor (M. tuberculosis H37Rv): highly sensitive

Compound: CC[C@@H](CO)NCCN[C@@H](CC)CO [ethambutol]
- effect on intracellular or extracellular glutamine synthetase activity [1]: negligible effect
